In ChEMBL document CHEMBL1201862, “PubChem BioAssay data set” (2004):
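Grown in 96-well plates, cells were treated for 48 hours with each compound at five concentrations. Insufficient inhibition: endpoint recorded as highest concentration tested. At the GI50, growth is halved.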 The source made the active and inactive calls. Cut-off read from the data, not from the text of the source: active = GI50 up to about 1.1 µM and inactive = higher.

What was measured:
Test in all cases: NCI anticancer screen, dose series, 48 h
UO-31 = tested on: UO-31
NCI-H522 = tested on: NCI-H522
HCT-15 = tested on: HCT-15
SK-MEL-2 = tested on: SK-MEL-2
CCRF-CEM = tested on: CCRF-CEM
786-0 = tested on: 786-0
UACC-257 = tested on: UACC-257
HOP-62 = tested on: HOP-62
OVCAR-5 = tested on: OVCAR-5
PC-3 = tested on: PC-3
T47D = tested on: T47D
HOP-92 = tested on: HOP-92
CAKI-1 = tested on: CAKI-1
OVCAR-4 = tested on: OVCAR-4
EKVX = tested on: EKVX
Hs-578T = tested on: Hs-578T
SNB-75 = tested on: SNB-75
SN12C = tested on: SN12C
SW-620 = tested on: SW-620
NCI-H23 = tested on: NCI-H23
HL-60 = tested on: HL-60
OVCAR-8 = tested on: OVCAR-8
ACHN = tested on: ACHN
SK-MEL-5 = tested on: SK-MEL-5
KM12 = tested on: KM12
OVCAR-3 = tested on: OVCAR-3
LOX IMVI = tested on: LOX IMVI
NCI/ADR-RES = tested on: NCI/ADR-RES
MDA-MB-231 = tested on: MDA-MB-231
RPMI-8226 = tested on: RPMI-8226
TK-10 = tested on: TK-10
SF-539 = tested on: SF-539
NCI-H226 = tested on: NCI-H226
SF-268 = tested on: SF-268
MCF7 = tested on: MCF7
IGROV-1 = tested on: IGROV-1
A498 = tested on: A498
M14 = tested on: M14
SK-OV-3 = tested on: SK-OV-3
U-251 = tested on: U-251
RXF 393 = tested on: RXF 393
HT-29 = tested on: HT-29
UACC-62 = tested on: UACC-62
MDA-MB-435 = tested on: MDA-MB-435
HCT-116 = tested on: HCT-116
A549 = tested on: A549
BT-549 = tested on: BT-549
MDA-N = tested on: MDA-N
SF-295 = tested on: SF-295
Malme-3M = tested on: Malme-3M
SK-MEL-28 = tested on: SK-MEL-28
NCI-H460 = tested on: NCI-H460
COLO 205 = tested on: COLO 205
MOLT-4 = tested on: MOLT-4
DU-145 = tested on: DU-145
SNB-19 = tested on: SNB-19
K562 = tested on: K562
SR = tested on: SR
HCC 2998 = tested on: HCC 2998

For CCOc1ccc(NC(=O)C(=O)C2C(=O)Nc3ccccc3[S+]2[O-])cc1 (stereo unspecified), the GI50 (UO-31) was > 100 µM (inactive), the GI50 (NCI-H522) was > 100 µM (inactive) and the GI50 (HCT-15) was > 100 µM. For the same compound, the GI50 (SK-MEL-2) was > 100 µM (inactive), the GI50 (CCRF-CEM) was > 100 µM (inactive) and the GI50 (786-0) was > 100 µM (inactive). The GI50 (UACC-257) was > 100 µM (inactive), the GI50 (HOP-62) was > 100 µM (inactive) and the GI50 (OVCAR-5) was > 100 µM (inactive). The GI50 (PC-3) was > 100 µM (inactive), the GI50 (T47D) was > 100 µM (inactive) and the GI50 (HOP-92) was > 100 µM (inactive). The GI50 (CAKI-1) was > 100 µM (inactive), the GI50 (OVCAR-4) was 89.7 µM (inactive) and the GI50 (EKVX) was 85.9 µM (inactive). The GI50 (Hs-578T) was > 100 µM (inactive), the GI50 (SNB-75) was 95.1 µM (inactive) and the GI50 (SN12C) was > 100 µM (inactive). The GI50 (SW-620) was > 100 µM (inactive), the GI50 (NCI-H23) was > 100 µM (inactive) and the GI50 (HL-60) was > 100 µM (inactive). The GI50 (OVCAR-8) was > 100 µM (inactive), the GI50 (ACHN) was > 100 µM (inactive) and the GI50 (SK-MEL-5) was > 100 µM (inactive). For the same compound, the GI50 (KM12) was > 100 µM (inactive), the GI50 (OVCAR-3) was > 100 µM (inactive) and the GI50 (LOX IMVI) was > 100 µM (inactive). The GI50 (NCI/ADR-RES) was > 100 µM (inactive), the GI50 (MDA-MB-231) was > 100 µM (inactive) and the GI50 (RPMI-8226) was > 100 µM (inactive). For the same compound, the GI50 (TK-10) was > 100 µM (inactive), the GI50 (SF-539) was > 100 µM (inactive) and the GI50 (NCI-H226) was > 100 µM (inactive). The GI50 (SF-268) was > 100 µM (inactive), the GI50 (MCF7) was > 100 µM (inactive) and the GI50 (IGROV-1) was 55.6 µM (inactive). For the same compound, the GI50 (A498) was > 100 µM (inactive), the GI50 (M14) was > 100 µM (inactive) and the GI50 (SK-OV-3) was > 100 µM (inactive). The GI50 (U-251) was > 100 µM (inactive), the GI50 (RXF 393) was > 100 µM (inactive) and the GI50 (HT-29) was > 100 µM (inactive). The GI50 (UACC-62) was > 100 µM (inactive), the GI50 (MDA-MB-435) was > 100 µM (inactive) and the GI50 (HCT-116) was > 100 µM (inactive). The GI50 (A549) was > 100 µM (inactive), the GI50 (BT-549) was > 100 µM (inactive) and the GI50 (MDA-N) was > 100 µM (inactive). The GI50 (SF-295) was > 100 µM (inactive), the GI50 (Malme-3M) was > 100 µM (inactive) and the GI50 (SK-MEL-28) was > 100 µM (inactive). The GI50 (NCI-H460) was > 100 µM (inactive).

Nc1nc2cc(Cl)ccc2n1N was tested, and the GI50 (UO-31) was > 100 µM (inactive), the GI50 (NCI-H522) was > 100 µM (inactive) and the GI50 (HCT-15) was > 100 µM. For the same compound, the GI50 (CCRF-CEM) was > 100 µM (inactive), the GI50 (786-0) was > 100 µM (inactive) and the GI50 (UACC-257) was > 100 µM (inactive). For the same compound, the GI50 (HOP-62) was 87.1 µM (inactive), the GI50 (OVCAR-5) was > 100 µM (inactive) and the GI50 (PC-3) was > 100 µM (inactive). The GI50 (T47D) was > 100 µM (inactive), the GI50 (CAKI-1) was > 100 µM (inactive) and the GI50 (COLO 205) was > 100 µM (inactive). For the same compound, the GI50 (EKVX) was > 100 µM (inactive), the GI50 (Hs-578T) was > 100 µM (inactive) and the GI50 (SNB-75) was > 100 µM (inactive). For the same compound, the GI50 (SN12C) was > 100 µM (inactive), the GI50 (SW-620) was > 100 µM (inactive) and the GI50 (NCI-H23) was > 100 µM (inactive). For the same compound, the GI50 (MOLT-4) was > 100 µM (inactive), the GI50 (HL-60) was > 100 µM (inactive) and the GI50 (OVCAR-8) was > 100 µM (inactive). The GI50 (ACHN) was > 100 µM (inactive), the GI50 (SK-MEL-5) was > 100 µM (inactive) and the GI50 (KM12) was > 100 µM (inactive). For the same compound, the GI50 (LOX IMVI) was > 100 µM (inactive), the GI50 (DU-145) was > 100 µM (inactive) and the GI50 (SNB-19) was > 100 µM (inactive). For the same compound, the GI50 (MDA-MB-231) was > 100 µM (inactive), the GI50 (RPMI-8226) was > 100 µM (inactive) and the GI50 (TK-10) was > 100 µM (inactive). The GI50 (SF-539) was > 100 µM (inactive), the GI50 (K562) was > 100 µM (inactive) and the GI50 (NCI-H226) was > 100 µM (inactive). The GI50 (SF-268) was > 100 µM (inactive), the GI50 (SR) was > 100 µM (inactive) and the GI50 (MCF7) was > 100 µM (inactive). For the same compound, the GI50 (IGROV-1) was > 100 µM (inactive), the GI50 (HCC 2998) was > 100 µM (inactive) and the GI50 (A498) was > 100 µM (inactive). The GI50 (M14) was > 100 µM (inactive), the GI50 (SK-OV-3) was 33.8 µM (inactive) and the GI50 (U-251) was > 100 µM (inactive). The GI50 (RXF 393) was 67 µM (inactive), the GI50 (HT-29) was > 100 µM (inactive) and the GI50 (UACC-62) was 86.9 µM (inactive). For the same compound, the GI50 (MDA-MB-435) was > 100 µM (inactive), the GI50 (HCT-116) was > 100 µM (inactive) and the GI50 (A549) was > 100 µM (inactive). For the same compound, the GI50 (BT-549) was 45.5 µM (inactive), the GI50 (MDA-N) was > 100 µM (inactive) and the GI50 (SF-295) was > 100 µM (inactive). For the same compound, the GI50 (Malme-3M) was > 100 µM (inactive) and the GI50 (SK-MEL-28) was > 100 µM (inactive).

For Cc1cc(S(=O)(=O)Nc2nncn2-c2ccc(Cl)cc2)c(S)cc1Cl, the GI50 (NCI-H522) was > 10 µM (inactive), the GI50 (HCT-15) was > 10 µM and the GI50 (SK-MEL-2) was > 10 µM (inactive). For the same compound, the GI50 (CCRF-CEM) was > 10 µM (inactive), the GI50 (786-0) was > 10 µM (inactive) and the GI50 (UACC-257) was > 10 µM (inactive). The GI50 (HOP-62) was > 10 µM (inactive), the GI50 (OVCAR-5) was > 10 µM (inactive) and the GI50 (PC-3) was > 10 µM (inactive). For the same compound, the GI50 (T47D) was > 10 µM (inactive), the GI50 (CAKI-1) was > 10 µM (inactive) and the GI50 (OVCAR-4) was > 10 µM (inactive). The GI50 (COLO 205) was > 10 µM (inactive), the GI50 (EKVX) was > 10 µM (inactive) and the GI50 (Hs-578T) was > 10 µM (inactive). The GI50 (SNB-75) was > 10 µM (inactive), the GI50 (SN12C) was > 10 µM (inactive) and the GI50 (SW-620) was > 10 µM (inactive). The GI50 (NCI-H23) was > 10 µM (inactive), the GI50 (MOLT-4) was > 10 µM (inactive) and the GI50 (HL-60) was > 10 µM (inactive). The GI50 (OVCAR-8) was > 10 µM (inactive), the GI50 (ACHN) was > 10 µM (inactive) and the GI50 (SK-MEL-5) was > 10 µM (inactive). The GI50 (KM12) was > 10 µM (inactive), the GI50 (OVCAR-3) was > 10 µM (inactive) and the GI50 (LOX IMVI) was > 10 µM (inactive). For the same compound, the GI50 (DU-145) was > 10 µM (inactive), the GI50 (NCI/ADR-RES) was > 10 µM (inactive) and the GI50 (SNB-19) was > 10 µM (inactive). For the same compound, the GI50 (MDA-MB-231) was > 10 µM (inactive), the GI50 (RPMI-8226) was > 10 µM (inactive) and the GI50 (TK-10) was > 10 µM (inactive). The GI50 (SF-539) was > 10 µM (inactive), the GI50 (K562) was > 10 µM (inactive) and the GI50 (NCI-H226) was > 10 µM (inactive). For the same compound, the GI50 (SF-268) was > 10 µM (inactive), the GI50 (MCF7) was > 10 µM (inactive) and the GI50 (IGROV-1) was > 10 µM (inactive). For the same compound, the GI50 (HCC 2998) was > 10 µM (inactive), the GI50 (A498) was > 10 µM (inactive) and the GI50 (M14) was > 10 µM (inactive). The GI50 (SK-OV-3) was > 10 µM (inactive), the GI50 (U-251) was > 10 µM (inactive) and the GI50 (RXF 393) was > 10 µM (inactive). The GI50 (HT-29) was > 10 µM (inactive), the GI50 (UACC-62) was > 10 µM (inactive) and the GI50 (MDA-MB-435) was > 10 µM (inactive). For the same compound, the GI50 (HCT-116) was > 10 µM (inactive), the GI50 (A549) was > 10 µM (inactive) and the GI50 (BT-549) was > 10 µM (inactive). For the same compound, the GI50 (MDA-N) was > 10 µM (inactive), the GI50 (SF-295) was > 10 µM (inactive) and the GI50 (Malme-3M) was > 10 µM (inactive). For the same compound, the GI50 (SK-MEL-28) was > 10 µM (inactive) and the GI50 (NCI-H460) was > 10 µM (inactive).
